From patent US12630594B2, “Allergy antigen and epitope for same” (HOYU CO., LTD., priority 2017, dated 2026)
Where no end group is shown, it is not given here.

Legend:
Assay type in all cases: binding, human
[1] = system: IgE antibodies from patients; test: Epitope mapping (2): overlapping 10-amino-acid peptide fragments shifted by one amino acid; conditions: positions numbered within the 15-amino-acid epitope; serum of 5 patients
Excerpt: On the basis of the sequences (SEQ ID NOs: 150-154 for alpha-actinin-3, SEQ ID NO: 155 for EEF1A2 binding protein-like, SEQ ID NOs: 156 and 157 for alpha-1,4-glucan phosphorylase, SEQ ID NOs: 158 and 159 for elongation factor 2, SEQ ID NOs: 160-162 for heat shock cognate 70 kDa protein, SEQ ID NOs: 163-167 for serotransferrin, SEQ ID NOs: 168-171 for myosin binding protein H-like, SEQ ID NOs: 172-174 for desmin (fragment), SEQ ID NOs: 175-178 for capping protein (actin filament) muscle Z-line beta, SEQ ID NOs: 179-185 for myosin heavy chain, fast skeletal muscle-like, SEQ ID NO: 186 for glycogen phosphorylase, muscle form-like, SEQ ID NOs: 187-196 for myosin-binding protein C, fast-type-like, SEQ ID NO: 197 for ATP synthase subunit beta, mitochondrial, SEQ ID NO: 198 for L-lactate dehydrogenase A chain-like, SEQ ID NO: 199 for aldolase, SEQ ID NOs: 200-202 for β-enolase, and SEQ ID NOs: 203 and 204 for glyceraldehyde-3-phosphate dehydrogenase) of the peptides bound to an IgE antibody in serum in a patient-specific manner as described above in (A), a library of overlapping peptide fragments (length: 10 amino acids) was prepared using the sequences of the peptides and sequences in which sequences were added so as to flank each peptide in the amino acid sequences of allergen components (SEQ ID NO: 2 for alpha-actinin-3, SEQ ID NO: 5 for EEF1A2 binding protein-like, SEQ ID NO: 10 for alpha-1,4-glucan phosphorylase, SEQ ID NO: 19 for elongation factor 2, SEQ ID NO: 26 for heat shock cognate 70 kDa protein, SEQ ID NO: 33 for serotransferrin, SEQ ID NO: 43 for myosin binding protein H-like, SEQ ID NO: 56 for desmin (fragment), SEQ ID NO: 61 for capping protein (actin filament) muscle Z-line beta, SEQ ID NO: 70 for myosin heavy chain, fast skeletal muscle-like, SEQ ID NO: 110 for glycogen phosphorylase, muscle form-like, SEQ ID NO: 121 for myosin-binding protein C, fast-type-like, SEQ ID NO: 138 for ATP synthase subunit beta, mitochondrial, SEQ ID NO: 144 for L-lactate dehydrogenase A chain-like, SEQ ID NO: 445 for aldolase, SEQ ID NO: 446 for β-enolase, and SEQ ID NO: 447 for glyceraldehyde-3-phosphate dehydrogenase) comprising the sequences of the peptide. Epitope mapping was carried out using the library.
The peptides to be synthesized were shifted by one amino acid.
The library was prepared by the same procedure as described above in (A), and the presence or absence of binding of an IgE antibody present in the serum of a patient and a non-fish-allergic subject to each peptide fragment was measured by the same technique as described above. Amino acids at positions where the binding activity against IgE antibodies from patients were lost or decreased in the peptides shifted by one amino acid while binding activity against IgE antibodies from non-fish-allergic subjects arose were confirmed as amino acids adversely affecting the specificity of binding to IgE antibodies.
Chemiluminescence intensity in images obtained by measurement was converted into a numeric value in the same manner as in (A) using ImageQuant TL (GE Healthcare). […]

[2] = system: IgE antibody from one patient having allergies to salmons and bastard halibut; test: Confirmation of epitope cross-reactivity (ELISA, FIG. 5); conditions: for binding of IgE antibody to peptide: serum of fish-allergic patient with symptoms to salmon and bastard halibut vs serum mixture from 4 non-fish-allergic subjects, FIG. 5
Excerpt: FIG. 5 is a diagram showing results of measuring […] using the sera of a fish-allergic patient and a non-fish-allergic subject as to a peptide of epitope No. 11 (SEQ ID NO: 160) having the amino acid sequence “SMVLVKMKEIAEAYL” derived from salmon heat shock cognate 70 kDa protein, and a peptide having the amino acid sequence “AMVLVKMKETAEAYL” derived from bastard halibut heat shock cognate 70 kDa protein. The numeric values on the ordinate represent absorbance for light at a wavelength of 450 nm.
Amino acids other than particularly important amino acids in the region (SEQ ID NO: 250) important for binding, in epitope No. 11 having the amino acid sequence “SMVLVKMKEIAEAYL” (SEQ ID NO: 160) found in salmon heat shock cognate 70 kDa protein in Table 3 were defined as any given amino acid (X). NCBI was searched for proteins having the resulting amino acid sequence “EXXXXYL” (SEQ ID NO: 248). As a result, the amino acid sequence “AMVLVKMKETAEAYL” (SEQ ID NO: 451) of bastard halibut heat shock 70 kDa protein (accession number: XP_019944736.1) was identified. […]
To be specific, ELISA was carried out according to the following procedure. • (1) The concentrations of the biotinylated peptides were adjusted to 1 μg/mL with PBST. • (2) Each peptide solution was added at 40 μL to each well of a 384-well plate coated with streptavidin, and shaken at room temperature for one hour. […] Absorbance at 450 nm was measured.
A peptide having this amino acid sequence “AMVLVKMKETAEAYL” of bastard halibut heat shock 70 kDa protein and a peptide having the amino acid sequence “SMVLVKMKEIAEAYL” of salmon heat shock cognate 70 kDa protein were each prepared by the same procedure as in Example 10(A), and the presence or absence of binding thereto of IgE antibodies present in the serum of a fish-allergic patient having allergy symptoms to salmon and bastard halibut and the serum of a non-fish-allergic subject (serum mixture from 4 subjects) was measured by the same technique as therein.

[3] = system: IgE antibody in the serum of a fish-allergic patient; test: Immunoblotting of two-dimensional electrophoresis patterns of fish meat proteins with patient serum; conditions: for spots detected by immunoblotting, different from spots with serum of non-fish-allergic subject: proteins contained in salmon meat; for specific binding to IgE antibodies from fish-allergic patients: spots in two-dimensional electrophoresis gel of proteins in fish, patients diagnosed with immediate-type allergy
Protocol: Proteins contained in fish were analyzed by the aforementioned technique to identify antigens of an allergy to fish. To be specific, proteins were extracted from fish meat and subjected to two-dimensional electrophoresis under the conditions described below.
The electrophoresis in the first dimension was isoelectric focusing, which was performed using isoelectric focusing gels with a gel-strip length of 5 to 10 cm and a gel pH range of 3 to 10. The pH gradient of the gels in the direction of electrophoresis was as follows: with the total gel-strip length being taken as 1, the gel-strip length up to pH 5 was “a=0.15 to 0.3”, the gel-strip length from pH 5 to 7 was “b=0.4 to 0.7”, and the gel-strip length above pH 7 was “c=0.15 to 0.3”. More specifically, the isoelectric focusing was performed using the IPG gels, Immobiline Drystrip (pH3-10NL), produced by GE Healthcare Bio-Sciences Corporation (hereinafter abbreviated as “GE”). The electrophoresis system used was IPGphor produced by GE. The maximum current of the electrophoresis system was limited to 75 μA per gel strip. The voltage program adopted to perform the first-dimensional isoelectric focusing was as follows: (1) a constant voltage step was performed at a constant voltage of 300 V until the volt-hours reached 750 Vhr (the current variation width during electrophoresis for 30 minutes before the end of this step was 5 μA); (2) the voltage was increased gradually to 1000 V for 300 Vhr; (3) the voltage was further increased gradually to 5000 V for 4500 Vhr; and then (4) the voltage was held at a constant voltage of 5000 V until the total Vhr reached 12000.
The electrophoresis in the second dimension was SDS-PAGE, which was performed using polyacrylamide gels whose gel concentration at the distal end in the direction of electrophoresis was set to 3 to 6% and whose gel concentration at the proximal end was set to a higher value than that at the distal end. More specifically, the SDS-PAGE was performed using NuPAGE 4-12% Bris-Tris Gels (IPG well, Mini, 1 mm) produced by Life Technologies. The electrophoresis system used was XCell SureLock Mini-Cell produced by Life Technologies. The electrophoresis was run at a constant voltage of 200 V for about 45 minutes using an electrophoresis buffer composed of 50 mM MOPS, 50 mM Tris base, 0.1% (w/v) SDS and 1 mM EDTA.
Identification of antigens by immunoblotting was carried out by taking all the steps up to the step of “Second-dimensional SDS-PAGE” as described above in Example 1, followed by the steps of “Transfer to membrane”, “Immunoblotting” and “Analysis” as described below.
To be specific, proteins in the second-dimensional electrophoresis gels were transferred to a membrane (PVDF membrane) according to the following procedure. • (1) The PVDF membrane was immersed in 100% methanol followed by milliQ water, and then moved into the transfer buffer to hydrophilize the PVDF membrane. • (2) After sponge, filter paper, the second-dimensional electrophoresis gels treated by second-dimensional SDS-PAGE, the hydrophilized PVDF membrane, filter paper, and sponge were put in place in this order, the transfer system was energized at a constant voltage of 30 V for one hour. Immunoblotting
Immunoblotting of the membrane was carried out using, as a primary antibody, a serum sample from patient 1 with a fish allergy or a serum sample from a non-fish-allergic subject. This fish-allergic patient 1 was a patient diagnosed with immediate-type allergy to fish. […]

[4] = serum from fish-allergic patient 2 (FIG. 1B left)

Substance: 11 (SMVLVKMKEIAEAYL; not fully specified (N-terminus)) [compound 11]
- Positions of amino acids of region important for binding in epitope [1]: 9-15
- epitope cross-reactivity ([2]; between fish species): cross-reactivity between the fish species salmon and bastard halibut

Substance: AMVLVKMKETAEAYL (not fully specified (N-terminus))
- binding of IgE antibody to peptide [2]: bound in a patient-specific manner

Substance: Capping protein (actin filament) muscle Z-line beta [Spot 9]
- spots detected by immunoblotting, different from spots with serum of non-fish-allergic subject [3, 4]: detected
- specific binding to IgE antibodies from fish-allergic patients [3]: specific binding to IgE antibodies

Substance: Elongation factor 2 [Spot 4]
- specific binding to IgE antibodies from fish-allergic patients [3]: specific binding to IgE antibodies

Substance: Heat shock cognate 70 kDa protein [Spot 5]
- specific binding to IgE antibodies from fish-allergic patients [3]: specific binding to IgE antibodies

Substance: L-lactate dehydrogenase A chain-like [Spot 14]
- spots detected by immunoblotting, different from spots with serum of non-fish-allergic subject [3, 4]: newly detected
- specific binding to IgE antibodies from fish-allergic patients [3]: specific binding to IgE antibodies

Substance: Myosin heavy chain, fast skeletal muscle-like [Spot 10]
- spots detected by immunoblotting, different from spots with serum of non-fish-allergic subject ([3]; serum from fish-allergic patient 3 (FIG. 1B right)): newly detected
- specific binding to IgE antibodies from fish-allergic patients [3]: specific binding to IgE antibodies

Substance: SMVLVKMKEIAEAYL (not fully specified (N-terminus)) [Epitope No. 11]
- binding of IgE antibody to peptide [2]: bound in a patient-specific manner
